Tested on: CSPα^WT, CSPα^L115R and CSPα^L116Δ
Experiment: Fe—S cluster disruption of purified recombinant CSPα oligomers (SDS-PAGE, immunoblotting)
Type: biochemical
Conditions: purified recombinant proteins; 1 mM, 2 h at room temperature; FIG. 2B
Protocol: FIGS. 2A-2F show dissociation of CSPα ANCL mutant protein oligomers by acid treatment. […] Purified recombinant CSPα^WT, CSPα^L115R CSPα^L116Δ, and SSPα proteins were incubated with either 1 mM L-cysteine for 2 h at room temperature (+L-Cys) or 0.1 N HCl for 20 min at room temperature (+HCl). The proteins were separated by SDS-PAGE, and resultant gels were subjected to immunoblotting using anti-CSPα antibody. A representative immunoblot is shown. Key: Mono=monomer; Oligo=oligomers of higher mass than dimer. Mono=monomer; Oligo=oligomers; grey arrowheads=possible dimer and tetramer. […] The proteins were subjected to increasing trypsin concentrations (0, 0.01, 0.05, 0.1, and 1.0 mg/ml) for 20 min at 4° C., followed by immediate inhibition of trypsin with addition of phenylmethylsulfonyl fluoride (PMSF) to 1 mM. After proteolysis was stopped, CSPα oligomers were disrupted with 0.1 N HCl for 20 min at room temperature, followed by 10 min of boiling in Laemmli sample buffer. The resultant proteins were separated by SDS-PAGE, and subjected to immunoblotting using anti-CSPα antibody. […] The proteins were first incubated with 0.1 N HCl for 20 min at room temperature and then neutralized with 1 M sodium cacodylate to pH 7.0. Limited proteolysis was then performed using increasing trypsin concentrations (0, 0.01, 0.05, 0.1, and 1.0 mg/ml) for 20 min at 4° C. […]

SMILES: N[C@@H](CS)C(=O)O [L-cysteine]
- disassembly of oligomers of CSPα^WT, CSPα^L115R and CSPα^L116Δ: no significant effect

From US12083105B2, “Compositions and methods for treating adult-onset neuronal ceroid lipofuscinosis (Kufs disease)” (CORNELL UNIVERSITY, priority 2020, dated 2024)
